# Measured values taken from patent US20250011299A1, “PYRIDAZINYL AMINO DERIVATIVES AS ALK5 INHIBITORS” (CHIESI FARMACEUTICI S.P.A., priority 2021, published 2025).
# pKi: −log10 of the molar value.
# Target: T1, human ALK5 (Homo sapiens, UniProt P36897)
# T1 construct: human ALK5 (recombinant TGF β1 N-term GST-tagged, 80-end); GST (N); purchased
# T1 sequence (P36897 80-503 limits assumed): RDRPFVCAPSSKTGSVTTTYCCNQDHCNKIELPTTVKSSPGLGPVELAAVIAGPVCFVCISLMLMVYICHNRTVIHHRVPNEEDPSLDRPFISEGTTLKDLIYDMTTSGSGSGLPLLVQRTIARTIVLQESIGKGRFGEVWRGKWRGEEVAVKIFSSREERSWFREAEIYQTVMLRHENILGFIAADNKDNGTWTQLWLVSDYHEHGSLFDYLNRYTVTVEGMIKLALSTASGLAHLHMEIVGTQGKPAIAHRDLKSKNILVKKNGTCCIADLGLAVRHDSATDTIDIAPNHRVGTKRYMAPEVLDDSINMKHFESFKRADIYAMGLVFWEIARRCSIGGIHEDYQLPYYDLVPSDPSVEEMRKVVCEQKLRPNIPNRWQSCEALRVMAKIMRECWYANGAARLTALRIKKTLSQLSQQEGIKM
# Experiment: ADP-GLO Kinases assay of ALK5 enzymatic activity
# Assay type: biochemical
# Conditions: purified recombinant human ALK5, TGFβ1 peptide substrate, pIC50 converted to pKi by Cheng-Prusoff, high ATP protocol (15 μM) for very potent compounds, 25° C.
# In short: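 Purified ALK5 preincubated 15 min with compound, then reacted with substrate and ATP; ADP formed read by ADP-Glo luminescence after 120 min or 60 min reaction, all steps at 25° C. 11-point concentration-response; pIC50 converted to pKi via Cheng-Prusoff.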
row,Structure (SMILES),pKi
1,"C[C@@H]1CN(CC(=O)Nc2cc(Nc3cc(-c4cc(Cl)ccc4F)nnc3SCCO)ccn2)C[C@H](C)N1 [Example 193, N-(4-{[6-(5-chloro-2-fluorophenyl)-3-[(2-hydroxyethyl)sulfanyl]pyridazin-4-yl]amino}pyridin-2-yl)-2-(3,5-dimethylpiperazin-1-yl)acetamide]",≥ 10.00
2,"CN1CCN(CCC(=O)Nc2cc(Nc3cc(-c4cc(Cl)ccc4F)nnc3SCCOCCO)ccn2)CC1 [Example 194, N-(4-{[6-(5-chloro-2-fluorophenyl)-3-{[2-(2-hydroxyethoxy)ethyl]sulfanyl}pyridazin-4-yl]amino}pyridin-2-yl)-3-(4-methylpiperazin-1-yl)propanamide]",≥ 10.00
3,"C[C@@H]1CN(CCC(=O)Nc2cc(Nc3cc(-c4cc(Cl)ccc4F)nnc3SCC[Si](C)(C)C)ncn2)C[C@H](C)N1 [Example 195, N-(6-{[6-(5-chloro-2-fluorophenyl)-3-{[2-(trimethylsilyl)ethyl]sulfanyl}pyridazin-4-yl]amino}pyrimidin-4-yl)-3-(3,5-dimethylpiperazin-1-yl)propanamide]",9.50 to 9.90
4,"CN1CCN(CCC(=O)Nc2cc(Nc3cc(-c4cc(Cl)ccc4F)nnc3SCc3cccc(C(=O)O)c3)ccn2)CC1 [Example 196, 3-({[6-(5-chloro-2-fluorophenyl)-4-({2-[3-(4-methylpiperazin-1-yl)propanamido]pyridin-4-yl}amino)pyridazin-3-yl]sulfanyl}methyl)benzoic acid]",9.50 to 9.90
5,"CN1CCN(CCC(=O)Nc2cc(Nc3cc(-c4cc(Cl)ccc4F)nnc3SCC3(C)CCOC3=O)ccn2)CC1 (stereo not drawn) [Example 197, N-(4-{[6-(5-chloro-2-fluorophenyl)-3-{[(3-methyl-2-oxooxolan-3-yl)methyl]sulfanyl}pyridazin-4-yl]amino}pyridin-2-yl)-3-(4-methylpiperazin-1-yl)propanamide]",9.50 to 9.90
6,"CN1CCN(CCC(=O)Nc2cc(Nc3cc(-c4cc(Cl)ccc4F)nnc3SCc3ccc(C(=O)O)cc3)ccn2)CC1 [Example 203, 4-({[6-(5-chloro-2-fluorophenyl)-4-({2-[3-(4-methylpiperazin-1-yl)propanamido]pyridin-4-yl}amino)pyridazin-3-yl]sulfanyl}methyl)benzoic acid]",≥ 10.00
7,"CN1CCC(COC(=O)c2cccc(CSc3nnc(-c4cc(Cl)ccc4F)cc3Nc3ccnc4[nH]ccc34)c2)CC1 [Example 206, (1-methylpiperidin-4-yl)methyl 3-({[6-(5-chloro-2-fluorophenyl)-4-({1H-pyrrolo[2,3-b]pyridin-4-yl}amino)pyridazin-3-yl]sulfanyl}methyl)benzoate]",9.50 to 9.90
8,"CN(C)CCOC(=O)c1cccc(CSc2nnc(-c3cc(Cl)ccc3F)cc2Nc2ccnc3[nH]ccc23)c1 [Example 207, 2-(dimethylamino)ethyl 3-({[6-(5-chloro-2-fluorophenyl)-4-({1H-pyrrolo[2,3-b]pyridin-4-yl}amino)pyridazin-3-yl]sulfanyl}methyl)benzoate]",9.50 to 9.90
9,"COc1nnc(-c2cc(Cl)ccc2F)cc1Nc1ccc2ncsc2c1 [Example C1, [6-(5-Chloro-2-fluorophenyl)-3-methoxypyridazin-4-yl]-1,3-benzothiazol-6-amine, reference compound]",8.20
